Where two headings read alike, the source gives them in different places.
What was measured:
P. cinnamomi = assay: In vitro fungicidal activity, radial mycelial growth test on PDA; format: cell-based, Phytophtora cinnamomi; settings: Phytophthora cinnamomi, 120 h, read-out: Percentage of inhibition on in vitro mycelial growth of P. cinnamomi; for inhibition at 50 µg/mL: 50 mg/L; for inhibition at 150 µg/mL: 150 mg/L; for inhibition at 250 µg/mL: 250 mg/L
Method: A strain of Botrytis cinerea isolated from a naturally infected grape (Vitis vinifera) was used in all experiments. Isolated Phytophtora cinnamomi was provided by the Agricultural and Livestock Service of Valparaíso. Both strains were maintained on a potato dextrose agar (PDA) medium (DIFCO, Detroit, MI) at 4°C. The inoculum of both pathogens was grown on PDA and incubates in dark at 23°C for 5 days in the case of B. cinerea and 8 days for P. cinnamomi.
The fungicidal activity of flavanones, extracts, the negative control (C-) composed of solvent (1% ethanol), and the positive control (C+, commercial fungicide Captan® and metalaxil® for B. cinerea and P. cinnamomi, respectively) were assessed using the radial growth test technique on PDA medium as described ([Taborga et al., 2015]). All test samples were dissolved in ethanol (1%) and water, to obtain final concentrations of 50, 150, and 250 mg/L in the PDA medium. A plug (4 mm) of PDA medium with five-day-old mycelium colonies of the pathogen was placed at the center of a Petri dish with PDA medium with or without studied test samples and were incubated at 23°C in dark for 72 h (B. cinerea) and 120 h (P. cinnamomi). After incubation, the diameters of colonies were measured and the inhibition percentage was calculated as the average of three replicas compared to C-.

5-hLOX = molecular target: T1, 5-hLOX (Homo sapiens, UniProt P09917); assay: In vitro 5-hLOX enzyme assay (H2DCFDA fluorescence); format: biochemical; settings: for Type of inhibition: 5-hLOX; for inhibition at 10 µM: Flavanones at 10 µM
T1 construct: purchased Cayman Chemicals Inc. (Ann Arbor, MI, USA)
T1 sequence (P09917 1-674): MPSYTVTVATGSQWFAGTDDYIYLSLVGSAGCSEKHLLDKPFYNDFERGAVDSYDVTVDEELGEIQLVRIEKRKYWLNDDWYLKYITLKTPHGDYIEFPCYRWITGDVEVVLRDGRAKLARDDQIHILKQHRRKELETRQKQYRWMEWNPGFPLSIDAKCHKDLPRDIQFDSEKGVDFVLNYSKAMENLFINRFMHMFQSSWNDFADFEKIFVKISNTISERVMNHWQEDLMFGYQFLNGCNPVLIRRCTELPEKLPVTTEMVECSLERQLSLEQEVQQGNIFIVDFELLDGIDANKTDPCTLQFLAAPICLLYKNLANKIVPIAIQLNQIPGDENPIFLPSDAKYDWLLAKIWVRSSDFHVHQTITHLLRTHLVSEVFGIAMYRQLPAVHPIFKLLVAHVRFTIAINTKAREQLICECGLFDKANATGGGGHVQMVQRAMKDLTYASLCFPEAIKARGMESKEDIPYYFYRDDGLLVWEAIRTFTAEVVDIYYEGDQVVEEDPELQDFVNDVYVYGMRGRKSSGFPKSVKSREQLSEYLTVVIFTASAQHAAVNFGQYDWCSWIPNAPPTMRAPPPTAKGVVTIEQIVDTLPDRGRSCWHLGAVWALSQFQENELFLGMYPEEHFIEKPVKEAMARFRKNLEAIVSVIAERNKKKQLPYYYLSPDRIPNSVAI
Method: The commercially available enzyme 5-hLOX from Cayman Chemicals Inc. (Ann Arbor, MI, USA), was diluted (1:500) in the assay buffer. This contained 4-(2-hydroxyethyl)-1-piperazineethane sulfonic acid (HEPES) 50 mM, ethylenediamine tetraacetic acid (EDTA) 2 mM, adenosine triphosphate (ATP) 10 μM, and CaCl2 10 μM at pH 7.5) admixed with 10 μM of H2DCFDA. The reaction mixture was incubated for 15 min in the assay plate. Later, 280 μL of buffer and 10 μM of inhibitors were added per well and incubated for 30 min at 37°C. Finally, the reaction was started by adding a suitable concentration of arachidonic acid (0.5 μM) and the fluorescence was read in a multimode detector Synergy™ HT Multi-Mode Microplate Reader (Biotek, Bad Friedrichshall, Germany) […] after incubation at room temperature for 1 h. The IC50 values were obtained for analysis of oxidation of H2DCFDA dye to the highly fluorescent 2’,7’-dichloro-fluorescein (DCF) using the non-linear curve-fitting program. […] All data were collected in duplicate and the assays were performed on different days to ensure reproducibility.

[1] = system: MDA-MB-231 human breast adenocarcinoma cells; assay: In vitro cytotoxic activity, CyQuant cell viability, 72 h; format: cell-based; settings: for CC50: Homo sapiens, MDA-MB-231, 72 h, read-out: LC50 ± SD
Method: (§1) The used cell lines include MDA-MB-231 human breast adenocarcinoma cells, B16-F10 mouse metastatic melanoma cells and MEF primary mouse embryonic fibroblast. Cells were maintained in a DMEM high glucose medium (Mediatech, Manassas, VA, USA) supplemented with 10% (MDA-MB-231 and B16-F10) or 15% (MEF) heat-inactivated fetal bovine serum (HyClone Laboratories, South Logan, USA), 100 IU ml^-1 penicillin and 100 μg ml^-1 streptomycin while maintained at 37°C in a 5% CO2 humidified atmosphere. Cell viability was measured using a CyQuant® Direct Cell Proliferation Assay Kit (Life Technologies, Grand Island, NY, USA) following the manufacturer’s instruction. Briefly, 5,000 cells per well were seeded onto a flat-bottom 96-well plate in 200 μL final volume. Six hours after seeding, the culture medium was replaced by the medium containing the tested compounds at 0.01 to 100 µM concentrations in DMSO (0.1% final concentration) during 72 h. Untreated cells (medium containing only 0.1% DMSO) were used as controls. At the end of the incubation, 100 μL of culture medium was removed from each well and replaced by detection reagent solution provided by the kit (which is a 1:5 mixture of the reagent CyQUANT®, direct nucleic acid stain and the reagent labeled as CyQUANT® direct background suppressor I). Cells were incubated for 1 h and fluorescence emission was measured at 535 nm with excitation at 480 nm in a microplate reader (Infinite 200 PRO, Tecan, Grödig, Austria). At least four independent experiments were performed for each concentration. The results from each experiment were transformed into percentage of controls and the LC50 values were graphically obtained from the dose-response curves. The LC50 value was obtained adjusting the dose-response curve to sigmoidal curves (variable slope) using the GraphPad Prisma 6.0 software ([GraphPad-Software, 2015]).

[2] = as above; format: cell-based; settings: mouse
Method: as §1

Row | IC50 (5-hLOX; read-out: IC50 (5-hLOX)) | SMILES | inhibition at 50 µg/mL (P. cinnamomi) | inhibition at 150 µg/mL (P. cinnamomi) | inhibition at 250 µg/mL (P. cinnamomi) | Type of inhibition (5-hLOX) | inhibition at 10 µM (5-hLOX) | CC50 [1] | CC50 at 72 h [2] | IC50 (5-hLOX) | Ki (5-hLOX) | LC50 ± SD ([1]; MDA-MB-231, 72 h) | CC50 at 72 h ([2]; MEF (non-cancerous cells), 72 h, read-out: LC50 ± SD)
1 | 0.1 µM | COc1cc(O)c2c(c1)O[C@H](c1ccc(O)c(O)c1)CC2=O [Compound 2, (-)-(2S)-5,3’,4’-trihydroxy-7-methoxyflavanone] | 0% | 33 ± 5.8% | 42 ± 5.3% | competitive | 93 ± 0.791% | 48.7 ± 9.32 µM | 31 ± 3.69 µM |  |  |  | 
2 |  | COc1cc(O)c2c(c1)O[C@H](c1ccc(O)cc1)CC2=O [Compound 1, (-)-(2S)-5,4’-dihydroxy-7-methoxyflavanone] | 0% | 0% | 0% | non-competitive | 61 ± 1.34% | ~1100 µM |  | 11.3 µM | 4.71 µM | no significant cytotoxic activity | 146 ± 23.4 µM

Reference: article PMC7399337, “Biological Properties and Absolute Configuration of Flavanones From Calceolaria thyrsiflora Graham” (Frontiers in Pharmacology, 2020)
